Results on 31 molecules are retold here after patent US20210317134A1, “UBIQUITIN-SPECIFIC-PROCESSING PROTEASE 7 (USP7) MODULATORS AND USES THEREOF” (RAPT THERAPEUTICS, INC., priority 2019, published 2021).

One may read the IC50 as the concentration at which inhibition is half-maximal. A low value points to greater potency in that assay.

The target in the test is USP7 (Homo sapiens, UniProt Q93009). Description: USP7 inhibitory potency (Table 1). The class given is biochemical.
Sequence of USP7 (Q93009 whole entry): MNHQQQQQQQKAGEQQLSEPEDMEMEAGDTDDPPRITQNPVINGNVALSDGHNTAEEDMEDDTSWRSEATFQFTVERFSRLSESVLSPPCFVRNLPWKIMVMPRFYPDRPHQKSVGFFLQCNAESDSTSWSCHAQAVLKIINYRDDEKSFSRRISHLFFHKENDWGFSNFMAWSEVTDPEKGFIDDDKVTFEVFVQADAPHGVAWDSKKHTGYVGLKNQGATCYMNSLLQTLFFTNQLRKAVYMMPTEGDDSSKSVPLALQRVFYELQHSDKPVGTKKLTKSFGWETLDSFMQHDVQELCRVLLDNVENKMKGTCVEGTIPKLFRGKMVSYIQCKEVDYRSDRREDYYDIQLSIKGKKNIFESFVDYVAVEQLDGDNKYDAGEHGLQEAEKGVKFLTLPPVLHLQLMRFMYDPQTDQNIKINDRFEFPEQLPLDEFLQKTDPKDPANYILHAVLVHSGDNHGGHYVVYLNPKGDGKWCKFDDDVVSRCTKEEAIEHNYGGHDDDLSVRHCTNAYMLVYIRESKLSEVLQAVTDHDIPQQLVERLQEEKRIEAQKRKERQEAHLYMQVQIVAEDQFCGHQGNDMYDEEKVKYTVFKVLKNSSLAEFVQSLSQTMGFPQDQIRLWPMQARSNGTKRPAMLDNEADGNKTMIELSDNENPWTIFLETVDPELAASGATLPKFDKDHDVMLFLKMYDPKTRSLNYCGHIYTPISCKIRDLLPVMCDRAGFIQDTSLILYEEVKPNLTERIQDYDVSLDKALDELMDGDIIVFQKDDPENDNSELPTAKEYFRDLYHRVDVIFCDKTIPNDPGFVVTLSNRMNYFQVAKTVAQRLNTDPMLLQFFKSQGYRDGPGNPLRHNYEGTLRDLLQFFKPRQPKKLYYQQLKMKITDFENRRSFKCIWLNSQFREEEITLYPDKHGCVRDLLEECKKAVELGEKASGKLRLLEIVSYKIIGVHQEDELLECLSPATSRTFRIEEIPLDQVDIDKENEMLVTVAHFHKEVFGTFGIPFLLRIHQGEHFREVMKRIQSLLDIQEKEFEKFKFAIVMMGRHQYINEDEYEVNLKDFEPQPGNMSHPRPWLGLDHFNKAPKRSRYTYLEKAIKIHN
Regarding `Fc1ccc2c(-c3cc(Cl)cc4c3O[C@@H](c3onc5c3CNCC5)C4)ccnc2c1` [(R)-3-(5-chloro-7-(7-fluoroquinolin-4-yl)-2,3-dihydrobenzofuran-2-yl)-4,5,6,7-tetrahydroisoxazolo[4,3-c]pyridine], the IC50 was under 1 µM.
Molecule `CCC(O)c1cc2nccc(-c3cc(Cl)cc4c3OC(c3onc5c3CN(C(C)C)CC5)C4)c2s1` (stereo not shown) [1-(7-(5-chloro-2-(5-isopropyl-4,5,6,7-tetrahydroisoxazolo[4,3-c]pyridin-3-yl)-2,3-dihydrobenzofuran-7-yl)thieno[3,2-b]pyridin-2-yl)propan-1-ol] gave an IC50 of under 1 µM.
Turning to `OCc1cc2ncnc(-c3cc(Cl)cc4c3O[C@@H](c3onc5c3CNCC5)C4)c2o1` [(R)-(4-(5-chloro-2-(4,5,6,7-tetrahydroisoxazolo[4,3-c]pyridin-3-yl)-2,3-dihydrobenzofuran-7-yl)furo[3,2-d]pyrimidin-6-yl)methanol], the IC50 is under 1 µM.
For `CC1(c2onc3c2CNCC3)Cc2cc(Cl)cc(-c3ccnc4cc(CO)sc34)c2O1` (stereo not shown) [(7-(5-chloro-2-methyl-2-(4,5,6,7-tetrahydroisoxazolo[4,3-c]pyridin-3-yl)-2,3-dihydrobenzofuran-7-yl)thieno[3,2-b]pyridin-2-yl)methanol] the value was under 1 µM; for `O=C([C@H]1Cc2cc(Cl)cc(-c3ccnc4c3CC(CN3C(=O)CCC3=O)C4)c2O1)N1CCNCC1` (stereo partly drawn) [1-((4-((R)-5-chloro-2-(piperazine-1-carbonyl)-2,3-dihydrobenzofuran-7-yl)-6,7-dihydro-5H-cyclopenta[b]pyridin-6-yl)methyl)pyrrolidine-2,5-dione], under 1 µM.
For `CCC(O)c1cc2nccc(-c3cc(Cl)cc4c3O[C@@H](c3ocnc3CN3CCCC3)C4)c2s1` (stereo partly drawn) [1-(7-((R)-5-chloro-2-(4-(pyrrolidin-1-ylmethyl)oxazol-5-yl)-2,3-dihydrobenzofuran-7-yl)thieno[3,2-b]pyridin-2-yl)propan-1-ol] the value was under 1 µM; for `N#Cc1cc2c(c(-c3ccnc4cc(CO)sc34)c1)O[C@@H](C(=O)N1CCNCC1)C2` [(R)-7-(2-(hydroxymethyl)thieno[3,2-b]pyridin-7-yl)-2-(piperazine-1-carbonyl)-2,3-dihydrobenzofuran-5-carbonitrile], under 1 µM.
For `CC[C@H](O)c1cc2nccc(-c3cc(Cl)cc4c3O[C@@](C)(c3onc5c3CNCC5)C4)c2s1` [(S)-1-(7-((R)-5-chloro-2-methyl-2-(4,5,6,7-tetrahydroisoxazolo[4,3-c]pyridin-3-yl)-2,3-dihydrobenzofuran-7-yl)thieno[3,2-b]pyridin-2-yl)propan-1-ol] the value was under 1 µM; for `Nc1cc(-c2cc(Cl)cc3c2OC(C(=O)N2CCNCC2)C3)ccn1` (stereo not shown) [(7-(2-Aminopyridin-4-yl)-5-chloro-2,3-dihydrobenzofuran-2-yl)(piperazin-1-yl)methanone], 1 to 10 µM.
Turning to `OC1(c2cc3nccc(-c4cc(Cl)cc5c4O[C@@H](c4onc6c4CNCC6)C5)c3s2)COC1` [(R)-3-(7-(5-chloro-2-(4,5,6,7-tetrahydroisoxazolo[4,3-c]pyridin-3-yl)-2,3-dihydrobenzofuran-7-yl)thieno[3,2-b]pyridin-2-yl)oxetan-3-ol], the IC50 is under 1 µM.
`CNC(=O)CCc1cc2nccc(-c3cc(Cl)cc4c3O[C@@H](C(=O)N3CCNCC3)C4)c2s1` [(R)-3-(7-(5-chloro-2-(piperazine-1-carbonyl)-2,3-dihydrobenzofuran-7-yl)thieno[3,2-b]pyridin-2-yl)-N-methylpropanamide] yielded an IC50 of under 1 µM.
Take `CS(=O)(=O)NCc1ccc2c(-c3cc(Cl)cc4c3O[C@@H](c3onc5c3CNCC5)C4)ccnc2c1` [(R)-N-((4-(5-chloro-2-(4,5,6,7-tetrahydroisoxazolo[4,3-c]pyridin-3-yl)-2,3-dihydrobenzofuran-7-yl)quinolin-7-yl)methyl)methanesulfonamide]: the IC50 is 1 to 10 µM.
As for `CC(=O)NCc1cc2ncnc(-c3cc(Cl)cc4c3O[C@@H](c3onc5c3CNCC5)C4)c2s1` [(R)-N-((4-(5-chloro-2-(4,5,6,7-tetrahydroisoxazolo[4,3-c]pyridin-3-yl)-2,3-dihydrobenzofuran-7-yl)thieno[3,2-d]pyrimidin-6-yl)methyl)acetamide], the IC50 was under 1 µM.
For `Cn1nc2c(c1[C@H]1Cc3cc(Cl)cc(-c4ccnc5cc(CN6C(=O)CCC6=O)sc45)c3O1)CNCC2` [(R)-1-((7-(5-chloro-2-(2-methyl-4,5,6,7-tetrahydro-2H-pyrazolo[4,3-c]pyridin-3-yl)-2,3-dihydrobenzofuran-7-yl)thieno[3,2-b]pyridin-2-yl)methyl)pyrrolidine-2,5-dione], the IC50 is under 1 µM.
In the case of `O=C([C@H]1Cc2cc(Cl)cc(-c3ncnc4cc(CN5C(=O)CCC5=O)sc34)c2O1)N1CCNCC1` [(R)-1-((4-(5-chloro-2-(piperazine-1-carbonyl)-2,3-dihydrobenzofuran-7-yl)thieno[3,2-d]pyrimidin-6-yl)methyl)pyrrolidine-2,5-dione], the IC50 is under 1 µM.
With `CCC(O)(CO)c1cc2nccc(-c3cc(Cl)cc4c3O[C@@H](C(=O)N3CCNCC3)C4)c2s1` (stereo partly drawn) [((2R)-5-chloro-7-(2-(1,2-dihydroxybutan-2-yl)thieno[3,2-b]pyridin-7-yl)-2,3-dihydrobenzofuran-2-yl)(piperazin-1-yl)methanone], the IC50 was under 1 µM.
`CS(=O)(=O)N1CCc2noc([C@H]3Cc4cc(Cl)cc(-c5ncnc6ccoc56)c4O3)c2C1` [(R)-3-(5-chloro-7-(furo[3,2-d]pyrimidin-4-yl)-2,3-dihydrobenzofuran-2-yl)-5-(methylsulfonyl)-4,5,6,7-tetrahydroisoxazolo[4,3-c]pyridine] had an IC50 of 1 to 10 µM.
`O=C([C@H]1Cc2cc(Cl)cc(-c3ccnc4c3CCC4)c2O1)N1CCNCC1` [(R)-(5-chloro-7-(6,7-dihydro-5H-cyclopenta[b]pyridin-4-yl)-2,3-dihydrobenzofuran-2-yl)(piperazin-1-yl)methanone] showed an IC50 of under 1 µM.
`CCC(O)c1ccc2c(-c3cc(Cl)cc4c3O[C@@H](c3onc5c3CNCC5)C4)ccnc2c1` (stereo partly drawn) [1-(4-((R)-5-chloro-2-(4,5,6,7-tetrahydroisoxazolo[4,3-c]pyridin-3-yl)-2,3-dihydrobenzofuran-7-yl)quinolin-7-yl)propan-1-ol] came in with an IC50 of 1 to 10 µM.
In turn, `C[C@@H](c1cc2nccc(-c3cc(Cl)cc4c3O[C@@H](C(=O)N3CCNCC3)C4)c2s1)N1C(=O)CCC1=O` [1-((S)-1-(7-((R)-5-chloro-2-(piperazine-1-carbonyl)-2,3-dihydrobenzofuran-7-yl)thieno[3,2-b]pyridin-2-yl)ethyl)pyrrolidine-2,5-dione] displayed an IC50 of under 1 µM.
`Cn1nc2c(c1[C@H]1Cc3cc(Cl)cc(-c4ncnc5ccoc45)c3O1)CNCC2` [(R)-4-(5-chloro-2-(2-methyl-4,5,6,7-tetrahydro-2H-pyrazolo[4,3-c]pyridin-3-yl)-2,3-dihydrobenzofuran-7-yl)furo[3,2-d]pyrimidine] registered an IC50 of under 1 µM.
Molecule `Clc1cc2c(c(-c3ccnc4c3CC3(COCOC3)C4)c1)O[C@@H](c1onc3c1CNCC3)C2` [(R)-4-(5-chloro-2-(4,5,6,7-tetrahydroisoxazolo[4,3-c]pyridin-3-yl)-2,3-dihydrobenzofuran-7-yl)-5,7-dihydrospiro[cyclopenta[b]pyridine-6,5′-[1,3]dioxane]] returned an IC50 of under 1 µM.
Molecule `O=C([C@H]1Cc2cc(Cl)cc(-c3ccnc4cc(Cn5c(=O)cc[nH]c5=O)sc34)c2O1)N1CCNCC1` [(R)-3-((7-(5-chloro-2-(piperazine-1-carbonyl)-2,3-dihydrobenzofuran-7-yl)thieno[3,2-b]pyridin-2-yl)methyl)pyrimidine-2,4(1H,3H)-dione] gave an IC50 of under 1 µM.
For the molecule `CN(C)C1CCCN(C(=O)[C@H]2Cc3cc(Cl)cc(-c4ccnc5ccsc45)c3O2)C1` (stereo partly drawn) [((R)-5-chloro-7-(thieno[3,2-b]pyridin-7-yl)-2,3-dihydrobenzofuran-2-yl)(3-(dimethylamino)piperidin-1-yl)methanone], the IC50 was under 1 µM.
For `Clc1cc2c(c(-c3ncnc4cc(Cl)ccc34)c1)O[C@@H](c1onc3c1CNCC3)C2` [(R)-3-(5-chloro-7-(7-chloroquinazolin-4-yl)-2,3-dihydrobenzofuran-2-yl)-4,5,6,7-tetrahydroisoxazolo[4,3-c]pyridine] the value was 1 to 10 µM.
`O=C1c2ccccc2C2(c3cc4ncnc(-c5cc(Cl)cc6c5O[C@@H](c5onc7c5CNCC7)C6)c4s3)OCCN12` (stereo partly drawn) [9b-(4-((R)-5-chloro-2-(4,5,6,7-tetrahydroisoxazolo[4,3-c]pyridin-3-yl)-2,3-dihydrobenzofuran-7-yl)thieno[3,2-d]pyrimidin-6-yl)-2,3-dihydrooxazolo[2,3-a]isoindol-5(9bH)-one] came in with an IC50 of 10 to 30 µM.
Molecule `CS(=O)(=O)NCCc1cc2nccc(-c3cc(Cl)cc4c3O[C@@H](C(=O)N3CCNCC3)C4)c2s1` [(R)-N-(2-(7-(5-chloro-2-(piperazine-1-carbonyl)-2,3-dihydrobenzofuran-7-yl)thieno[3,2-b]pyridin-2-yl)ethyl)methanesulfonamide] displayed an IC50 of under 1 µM.
`Cc1nc(-c2cc(Cl)cc3c2O[C@@H](c2onc4c2CNCC4)C3)c2sccc2n1` [(R)-3-(5-chloro-7-(2-methylthieno[3,2-d]pyrimidin-4-yl)-2,3-dihydrobenzofuran-2-yl)-4,5,6,7-tetrahydroisoxazolo[4,3-c]pyridine] returned an IC50 of 10 to 30 µM.
Molecule `Clc1cc2c(c(-c3ncnc4ccsc34)c1)O[C@@H](c1onc3c1CNCC3)C2` [(R)-3-(5-chloro-7-(thieno[3,2-d]pyrimidin-4-yl)-2,3-dihydrobenzofuran-2-yl)-4,5,6,7-tetrahydroisoxazolo[4,3-c]pyridine] yielded an IC50 of under 1 µM.
Consider `CCC(OC)c1cc2nccc(-c3cc(Cl)cc4c3O[C@@H](c3onc5c3CNCC5)C4)c2s1` (stereo partly drawn) [3-((2R)-5-chloro-7-(2-(1-methoxypropyl)thieno[3,2-b]pyridin-7-yl)-2,3-dihydrobenzofuran-2-yl)-4,5,6,7-tetrahydroisoxazolo[4,3-c]pyridine], for which the IC50 was under 1 µM.
In turn, `CNC(=O)c1ccc2c(-c3cc(Cl)cc4c3OC(C(=O)N3CCNCC3)C4)ccnc2c1` (stereo not shown) [4-(5-chloro-2-(piperazine-1-carbonyl)-2,3-dihydrobenzofuran-7-yl)-N-methylquinoline-7-carboxamide] returned an IC50 of 1 to 10 µM.
